21 compounds from patent US20100009970A1, “COMPOSITIONS AND METHODS FOR TREATMENT OF VIRAL DISEASES” (Combinatorx (Singapore) Pte. Ltd., priority 2008, published 2010) can be followed below.

By IC90 is commonly meant the concentration needed for an effect of 90%. A higher IC90 goes with a need for much substance. By IC50 is commonly meant the midpoint of a concentration-inhibition curve.

Where two headings read alike, the source gives them in different places.

Data set [1] has as its system Huh7 cells expressing a subgenomic RNA replicon of Con1 (genotype 1b) sequence origin. Briefly: microbe, parasite or virus in culture. Conditions: Hepatitis C virus; for IC90: Huh-7.
A further data set in a line: in vitro. The settings on record: human.
Where [2] appears, read: Huh-7, read-out: IC50 (uM) [SG].
[3] abbreviates: Huh-7, read-out: Max Effect@CC30 (inhibition).
Where [4] appears, read: GETYPE1B, Huh-7, 72 h, read-out: Max Effect @CC30 (inhibition).

`CSc1ccc(Oc2ccc(S(N)(=O)=O)cc2CN2CCCCC2)cc1C` [Compound 73, 4-(3-methyl-4-(methylthio)phenoxy)-3-(piperidin-1-ylmethyl)benzenesulfonamide] registered a 90% effect concentration (IC90) in data set [1] of 13.6 µM. The IC50 in data set [1] (setting [2]) was determined as 4.7 µM. The compound also came in with a CC50 in “in vitro” (CC50 (uM) [SG]) of 37.9 µM.

In the case of `CC(C)C1=CC[C@@H](c2ccc(Cl)c(Cl)c2)c2ccc(C(N)=O)cc21` [(S)-5-(3,4-dichlorophenyl)-8-isopropyl-5,6-dihydronaphthalene-2-carboxamide], in data set [1] (setting [2]), the IC50 is 21.5 µM. In addition, the CC50 in the data set “in vitro” (CC50 (uM) [SG]) is more than 50 µM.

Consider `CNCc1cc([N+](=O)[O-])ccc1Oc1ccc(SC)c(C)c1` [Compound 50, N-methyl-1-(2-(3-methyl-4-(methylthio)phenoxy)-5-nitrophenyl)methanamine], for which the IC90 in data set [1] came to 11.4 µM. Moreover, the 50% inhibitory concentration (IC50) in data set [1] (setting [2]) stood at 6.04 µM. Moreover, the Emax in data set [1] (setting [3]) is 90%. For the same compound, in the data set “in vitro” (CC50 (uM) [SG]), the CC50 is 26.1 µM.

Take `CSc1ccc(Oc2ccc(S(N)(=O)=O)cc2CN2CCN(c3ccc(Cl)cc3)CC2)cc1C` [Compound 92, 3-((4-(4-chlorophenyl)piperazin-1-yl)methyl)-4-(3-methyl-4-(methylthio)phenoxy)benzenesulfonamide]: the IC50 in data set [1] (setting [2]) was 30 µM. In “in vitro” (CC50 (uM) [SG]), this compound displayed a CC50 of 44.4 µM.

On to `CN(C1CC1)[C@H]1CC[C@@H](c2ccc(Cl)c(Cl)c2)c2ccccc21` [N-Cyclopropyl Sertraline, (1S,4S)—N-cyclopropyl-4-(3,4-dichlorophenyl)-N-methyl-1,2,3,4-tetrahydronaphthalen-1-amine], for which, in data set [1], the 90% effect level (IC90) was put at 34.2 µM. Besides, the 50% inhibitory concentration (IC50) in data set [1] (setting [2]) was 14.5 µM. In data set [1] (setting [3]), the Emax turned out to be 99%. This compound also registered a CC50 in the data set “in vitro” (CC50 (uM) [SG]) of more than 50 µM.

As for `O=C1CC[C@@H](c2ccc(Cl)c(Cl)c2)c2ccccc21` [4S-Sertraline Ketone, (S)-4-(3,4-dichlorophenyl)-3,4-dihydronaphthalen-1(2H)-one], the IC50 in data set [1] (setting [2]) is 32.6 µM. In addition, the Emax in data set [1] (setting [3]) came to 77%. Also, in the data set “in vitro” (CC50 (uM) [SG]), the CC50 is more than 50 µM.

On to `CNCc1cc(S(N)(=O)=O)ccc1Oc1ccc(SC)c(OC)c1` [Compound 75, 4-(3-methoxy-4-(methylthio)phenoxy)-3-((methylamino)methyl)benzenesulfonamide], for which, in data set [1] (setting [2]), the IC50 worked out at 11.9 µM. Besides, the CC50 in “in vitro” (CC50 (uM) [SG]) is more than 50 µM.

For `CSc1cc(S(N)(=O)=O)c(Oc2cc(Br)ccc2CN(C)C)cc1C` [Compound 72, 2-(5-bromo-2-((dimethylamino)methyl)phenoxy)-4-methyl-5-(methylthio)benzenesulfonamide], in data set [1] (setting [2]), the IC50 amounted to 16.3 µM. The CC50 in the data set “in vitro” (CC50 (uM) [SG]) came to 45 µM.

For the compound `CN[C@H]1CC[C@@H](c2ccc(Cl)c(Cl)c2)c2ccc(N)cc21` [Sertraline Aniline, (1S,4S)-4-(3,4-dichlorophenyl)-N1-methyl-1,2,3,4-tetrahydronaphthalene-1,7-diamine], the Emax in data set [1] (setting [4]) and in data set [1] (setting [3]) was 50% in each case. Besides, the half-inhibitory concentration (IC50) in data set [1] (Huh-7, 72 h) came to 6 µM; in data set [1] (setting [2]), 6 µM. The CC50 in the data set “in vitro” (CC50 (uM)) and in the data set “in vitro” (CC50 (uM) [SG]) was 8.72 µM throughout.

With `CN[C@H]1CC[C@@H](c2ccc(Cl)c(Cl)c2)c2ccc([N+](=O)[O-])cc21` [Nitro Sertraline, (1S,4S)-4-(3,4-dichlorophenyl)-N-methyl-7-nitro-1,2,3,4-tetrahydronaphthalen-1-amine], the Emax in data set [1] (setting [4]) and in data set [1] (setting [3]) was 27% each time. Also, the IC50 in data set [1] (Huh-7, 72 h) is 6.46 µM; in data set [1] (setting [2]) it was 6.46 µM. In addition, the CC50 in the data set “in vitro” (CC50 (uM)) and in “in vitro” (CC50 (uM) [SG]) was 8.03 µM each time.

`CN(C)[C@H]1CC[C@@H](c2ccc(Cl)c(Cl)c2)c2ccc(C(=O)NC3CCC3)cc21` [(5S,8S)—N-cyclobutyl-5-(3,4-dichlorophenyl)-8-(dimethylamino)-5,6,7,8-tetrahydronaphthalene-2-carboxamide]: the IC50 in data set [1] (setting [2]) was found to be 5.78 µM. For the same compound, the CC50 in “in vitro” (CC50 (uM) [SG]) is 13.4 µM.

Take `CSc1ccc(Oc2ccc(S(N)(=O)=O)cc2CN2CC[C@@H](N(C)C)C2)cc1C` [Compound 100, (R)-3-((3-(dimethylamino)pyrrolidin-1-yl)methyl)-4-(3-methyl-4-(methylthio)phenoxy)benzenesulfonamide]: the concentration for an effect of 90% (IC90) in data set [1] was 10.6 µM. In addition, the IC50 in data set [1] (setting [2]) was 5.03 µM. The same compound gave a CC50 in “in vitro” (CC50 (uM) [SG]) of 35.6 µM.

As for `CNC1CCC(c2ccc(Cl)c(Cl)c2)c2ccsc21` (centres unmarked) [Sertraline A-ring Thiophene], the IC50 in data set [1] (setting [2]) worked out at 8.27 ± 0.46 µM; in data set [1] (Huh-7, read-out: SA IC50 (uM)), 8.27 ± 0.46 µM. Moreover, the Emax in data set [1] (setting [3]) worked out at 80.8 ± 2.55%; in data set [1] (Huh-7, read-out: Max effect @CC30 (%)), 80.8 ± 2.55%. In addition, the CC50 in “in vitro” (CC50 (uM) [SG]) was 18.8 ± 0.93 µM.

The compound `CSc1ccc(Oc2ccc(S(N)(=O)=O)cc2CN(C)C[C@@H](C)O)cc1C` [Compound 70, (R)-3-(((2-hydroxypropyl)(methyl)amino)methyl)-4-(3-methyl-4-(methylthio)phenoxy)benzenesulfonamide] gave an IC90 in data set [1] of 23.9 µM. Moreover, the IC50 in data set [1] (setting [2]) was determined as 7.01 µM. Besides, the CC50 in the data set “in vitro” (CC50 (uM) [SG]) is more than 50 µM.

Take `CNCc1ccccc1Oc1ccc(Br)cc1` [Compound 32]: the IC50 in data set [1] (setting [2]) was 31.2 µM. For the same compound, the Emax in data set [1] (setting [3]) was found to be 30%. In addition, the CC50 in “in vitro” (CC50 (uM) [SG]) was more than 50 µM.

Take `CSc1ccc(N(C)c2ccc(Br)cc2CN(C)C)cc1C` [Compound 98, 4-Bromo-2-((dimethylamino)methyl)-N-methyl-N-(3-methyl-4-(methylthio)phenyl)aniline]: in data set [1], it took 26.8 µM to reach the 90% level (IC90). Besides, in data set [1] (setting [2]), the half-inhibitory concentration (IC50) was determined as 25 µM. The CC50 in the data set “in vitro” (CC50 (uM) [SG]) is more than 50 µM.

Compound `CSc1ccc(Oc2ccc(S(N)(=O)=O)cc2CN(C)CCN(C)C)cc1C` [Compound 97, 3-(((2-(dimethylamino)ethyl)(methyl)amino)methyl)-4-(3-methyl-4-(methylthio)phenoxy)benzenesulfonamide] showed a concentration for an effect of 90% (IC90) in data set [1] of 14 µM. For the same compound, the IC50 in data set [1] (setting [2]) was 12.4 µM. The compound further gave a CC50 in “in vitro” (CC50 (uM) [SG]) of 43.3 µM.

As for `N[C@H]1CC[C@@H](c2ccc(Cl)c(Cl)c2)c2ccccc21` [(1S,4S)-Desmethyl Sertraline, (1S,4S)-4-(3,4-dichlorophenyl)-1,2,3,4-tetrahydronaphthalen-1-amine], the Emax in data set [1] (setting [4]) and in data set [1] (setting [3]) was 0% throughout. Further, the IC50 in data set [1] (Huh-7, 72 h) worked out at 7.5 ± 0.4 µM; in data set [1] (setting [2]), 7.5 µM. Besides, the CC50 in the data set “in vitro” (CC50 (uM)) and in the data set “in vitro” (CC50 (uM) [SG]) was 8.98 ± 0.1 µM in each case.

Consider `CSc1ccc(Oc2ccc(S(=O)(=O)Nc3ccc(Br)cc3)cc2CN(C)C)cc1C` [Compound 57, N-(4-bromophenyl)-3-((dimethylamino)methyl)-4-(3-methyl-4-(methylthio)phenoxy)benzenesulfonamide], for which the 50% inhibitory concentration (IC50) in data set [1] (setting [2]) is 11 µM. This compound also came in with a CC50 in “in vitro” (CC50 (uM) [SG]) of 8.17 µM.

In the case of `CN(C(=O)c1ccc2c(c1)[C@@H](N(C)C)CC[C@H]2c1ccc(Cl)c(Cl)c1)C1CC1` [(5S,8S)—N-cyclopropyl-5-(3,4-dichlorophenyl)-8-(dimethylamino)-N-methyl-5,6,7,8-tetrahydronaphthalene-2-carboxamide], the IC50 in data set [1] (setting [2]) was determined as 13 µM. The CC50 in the data set “in vitro” (CC50 (uM) [SG]) came to 26.3 µM.

As for `COc1ccc(NS(=O)(=O)c2ccc(Oc3ccc(SC)c(C)c3)c(CN(C)C)c2)cc1` [Compound 59, 3-((dimethylamino)methyl)-N-(4-methoxyphenyl)-4-(3-methyl-4-(methylthio)phenoxy)benzenesulfonamide], the half-inhibitory concentration (IC50) in data set [1] (setting [2]) was found to be 6.39 µM. The CC50 in the data set “in vitro” (CC50 (uM) [SG]) was determined as 8.32 µM.
